In paper PMC8214221, “Sequence determinants in the cathelicidin LL-37 that promote inflammation via presentation of RNA to scavenger receptors” (The Journal of Biological Chemistry, 2021):
Residues, ends and D or L forms follow the SMILES beside them.

tested on: normal human epidermal keratinocytes (NHEKs); assay: LDH release cytotoxicity assay in keratinocytes; assay type: cell-based; conditions: minimal concentration giving 50% LDH release by NHEKs
From the text: Since LL-34 was the minimal truncation mutant of LL-37 that retained both antimicrobial and immune modulatory activity, we prepared a series of synthetic peptides with sequential substitutions of alanine at each amino acid position of the LL-34 parent peptide (Table 1). We compared the minimum inhibitory concentration (MIC) for the LL-34 parent peptide and the alanine mutants (LL-34 peptides—L1A and R34A) against methicillin-resistant Staphylococcus aureus strain USA300 (Fig. 1A). LL-34 peptides were incubated at concentrations of 0 to 100 μM with bacteria. The minimal concentration at which no growth was observed was noted after 18 h of incubation. […] Because of these changes in the MIC against S. aureus between the mutants, we investigated the effective toxicity profile of the peptides in normal human epidermal keratinocytes (NHEKs) by lactate dehydrogenase (LDH) release assay (Table 1). […] Most other peptides were cytotoxic at a minimal concentration of 10 μM, whereas LL-34—K15A was toxic at a concentration of 2.5 μM.
LDH cytotoxicity assay was performed according to manufacturer's instructions (Thermo Fisher Scientific). Culture supernatants from keratinocytes were used fresh for LDH assay after experimental treatments.

Compound	Minimal cytotoxic concentration in NHEK (LD50) [µM]
CC[C@H](C)[C@H](NC(=O)[C@H](CCCCN)NC(=O)[C@H](CCC(=O)O)NC(=O)[C@H](CCCCN)NC(=O)[C@H](CO)NC(=O)[C@H](CCCCN)NC(=O)[C@H](CCCNC(=N)N)NC(=O)[C@H](Cc1ccccc1)NC(=O)[C@H](Cc1ccccc1)NC(=O)[C@H](C)NC(=O)CNC(=O)[C@H](CC(C)C)NC(=O)[C@@H](N)CC(C)C)C(=O)NCC(=O)N[C@@H](CCCCN)C(=O)N[C@@H](CCC(=O)O)C(=O)N[C@@H](Cc1ccccc1)C(=O)N[C@@H](CCCCN)C(=O)N[C@@H](CCCNC(=N)N)C(=O)N[C@H](C(=O)N[C@H](C(=O)N[C@@H](CCC(N)=O)C(=O)N[C@@H](CCCNC(=N)N)C(=O)N[C@H](C(=O)N[C@@H](CCCCN)C(=O)N[C@@H](CC(=O)O)C(=O)N[C@@H](Cc1ccccc1)C(=O)N[C@@H](CC(C)C)C(=O)N[C@@H](CCCNC(=N)N)C(=O)N[C@@H](CC(N)=O)C(=O)N[C@@H](CC(C)C)C(=O)N[C@H](C(=O)N1CCC[C@H]1C(=O)N[C@@H](CCCNC(=N)N)C(=O)O)C(C)C)[C@@H](C)CC)C(C)C)[C@@H](C)CC [LL-34—D4A] (H-LLGAFFRKSKEKIGKEFKRIVQRIKDFLRNLVPR-OH; N-terminus and C-terminus assumed)	5
CC[C@H](C)[C@H](NC(=O)[C@H](C)NC(=O)[C@H](CCCCN)NC(=O)[C@H](Cc1ccccc1)NC(=O)[C@H](CCC(=O)O)NC(=O)[C@H](CCCCN)NC(=O)CNC(=O)[C@@H](NC(=O)[C@H](CCCCN)NC(=O)[C@H](CCC(=O)O)NC(=O)[C@H](CCCCN)NC(=O)[C@H](CO)NC(=O)[C@H](CCCCN)NC(=O)[C@H](CCCNC(=N)N)NC(=O)[C@H](Cc1ccccc1)NC(=O)[C@H](Cc1ccccc1)NC(=O)[C@H](CC(=O)O)NC(=O)CNC(=O)[C@H](CC(C)C)NC(=O)[C@@H](N)CC(C)C)[C@@H](C)CC)C(=O)N[C@H](C(=O)N[C@@H](CCC(N)=O)C(=O)N[C@@H](CCCNC(=N)N)C(=O)N[C@H](C(=O)N[C@@H](CCCCN)C(=O)N[C@@H](CC(=O)O)C(=O)N[C@@H](Cc1ccccc1)C(=O)N[C@@H](CC(C)C)C(=O)N[C@@H](CCCNC(=N)N)C(=O)N[C@@H](CC(N)=O)C(=O)N[C@@H](CC(C)C)C(=O)N[C@H](C(=O)N1CCC[C@H]1C(=O)N[C@@H](CCCNC(=N)N)C(=O)O)C(C)C)[C@@H](C)CC)C(C)C [LL-34—R19A] (H-LLGDFFRKSKEKIGKEFKAIVQRIKDFLRNLVPR-OH; N-terminus and C-terminus assumed)	10
CC[C@H](C)[C@H](NC(=O)[C@H](CCCCN)NC(=O)[C@H](CCC(=O)O)NC(=O)[C@H](CCCCN)NC(=O)[C@H](CO)NC(=O)[C@H](CCCCN)NC(=O)[C@H](CCCNC(=N)N)NC(=O)[C@H](Cc1ccccc1)NC(=O)[C@H](Cc1ccccc1)NC(=O)[C@H](CC(=O)O)NC(=O)CNC(=O)[C@H](C)NC(=O)[C@@H](N)CC(C)C)C(=O)NCC(=O)N[C@@H](CCCCN)C(=O)N[C@@H](CCC(=O)O)C(=O)N[C@@H](Cc1ccccc1)C(=O)N[C@@H](CCCCN)C(=O)N[C@@H](CCCNC(=N)N)C(=O)N[C@H](C(=O)N[C@H](C(=O)N[C@@H](CCC(N)=O)C(=O)N[C@@H](CCCNC(=N)N)C(=O)N[C@H](C(=O)N[C@@H](CCCCN)C(=O)N[C@@H](CC(=O)O)C(=O)N[C@@H](Cc1ccccc1)C(=O)N[C@@H](CC(C)C)C(=O)N[C@@H](CCCNC(=N)N)C(=O)N[C@@H](CC(N)=O)C(=O)N[C@@H](CC(C)C)C(=O)N[C@H](C(=O)N1CCC[C@H]1C(=O)N[C@@H](CCCNC(=N)N)C(=O)O)C(C)C)[C@@H](C)CC)C(C)C)[C@@H](C)CC [LL-34—L2A] (H-LAGDFFRKSKEKIGKEFKRIVQRIKDFLRNLVPR-OH; N-terminus and C-terminus assumed)	5
